Here are results for 13 molecules from patent US11739098B2 (BRISTOL-MYERS SQUIBB COMPANY, priority 2017, dated 2023).

What all share (type): cell-based
One experiment addresses T1, human TLR7 (Homo sapiens, UniProt Q9NYK1).
T1 construct: host or cells: HEK-Blue cells (HEK293-derived reporter line)
T1 sequence (Q9NYK1 27-1049): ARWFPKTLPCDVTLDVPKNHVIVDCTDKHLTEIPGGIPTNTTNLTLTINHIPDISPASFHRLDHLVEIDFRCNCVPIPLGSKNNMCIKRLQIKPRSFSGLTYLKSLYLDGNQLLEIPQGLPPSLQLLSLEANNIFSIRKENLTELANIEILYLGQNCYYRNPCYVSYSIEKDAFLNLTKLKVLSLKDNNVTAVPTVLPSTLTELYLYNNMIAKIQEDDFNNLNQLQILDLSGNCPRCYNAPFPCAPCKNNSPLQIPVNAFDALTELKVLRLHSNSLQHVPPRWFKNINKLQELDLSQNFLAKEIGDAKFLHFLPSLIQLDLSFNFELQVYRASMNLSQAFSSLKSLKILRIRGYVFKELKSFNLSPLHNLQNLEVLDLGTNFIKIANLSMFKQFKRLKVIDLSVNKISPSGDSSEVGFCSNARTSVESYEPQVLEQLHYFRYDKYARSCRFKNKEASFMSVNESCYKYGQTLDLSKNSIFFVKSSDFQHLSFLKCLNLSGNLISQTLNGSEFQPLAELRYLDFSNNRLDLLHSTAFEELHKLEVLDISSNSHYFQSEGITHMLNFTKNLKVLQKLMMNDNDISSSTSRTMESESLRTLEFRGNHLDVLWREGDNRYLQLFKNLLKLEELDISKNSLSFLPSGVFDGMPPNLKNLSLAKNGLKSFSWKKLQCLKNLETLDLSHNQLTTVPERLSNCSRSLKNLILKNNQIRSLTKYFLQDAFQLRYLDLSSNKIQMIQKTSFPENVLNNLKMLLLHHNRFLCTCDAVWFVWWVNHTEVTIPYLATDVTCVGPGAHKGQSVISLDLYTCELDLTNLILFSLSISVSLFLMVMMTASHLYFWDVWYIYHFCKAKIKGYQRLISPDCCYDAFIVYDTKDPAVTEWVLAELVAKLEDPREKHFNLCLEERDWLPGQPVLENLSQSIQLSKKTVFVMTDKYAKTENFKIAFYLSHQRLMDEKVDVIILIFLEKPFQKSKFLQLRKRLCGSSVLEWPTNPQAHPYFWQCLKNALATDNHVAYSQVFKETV
The experiment is described as follows: TLR7 inhibition reporter assay (HEK-Blue cells, SEAP reporter, gardiquimod stimulation). Conditions: HEK-Blue cells overexpressing human TLR7, SEAP reporter, gardiquimod 7.5 μM. In short, it runs like this:
(§1)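 Agonists (final): TLR7 gardiquimod 7.5 μM; TLR8 R848 15.9 μM; TLR9 ODN2006 5 nM. HEK-Blue reporter cells, 30 min RT compound pre-incubation, 0.05 nM–50 μM dose range, 22 h at 37 °C, colorimetric SEAP detection medium. % inhibition relative to agonist+DMSO and known-inhibitor wells.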
(In general: Reporter assays use an easily measured gene product as a stand-in for the process of interest.)

The next experiment deals with T2, human TLR8 (Homo sapiens, UniProt Q9NR97).
T2 construct: host or cells: HEK-Blue cells (HEK293-derived reporter line)
T2 sequence (Q9NR97 27-1041): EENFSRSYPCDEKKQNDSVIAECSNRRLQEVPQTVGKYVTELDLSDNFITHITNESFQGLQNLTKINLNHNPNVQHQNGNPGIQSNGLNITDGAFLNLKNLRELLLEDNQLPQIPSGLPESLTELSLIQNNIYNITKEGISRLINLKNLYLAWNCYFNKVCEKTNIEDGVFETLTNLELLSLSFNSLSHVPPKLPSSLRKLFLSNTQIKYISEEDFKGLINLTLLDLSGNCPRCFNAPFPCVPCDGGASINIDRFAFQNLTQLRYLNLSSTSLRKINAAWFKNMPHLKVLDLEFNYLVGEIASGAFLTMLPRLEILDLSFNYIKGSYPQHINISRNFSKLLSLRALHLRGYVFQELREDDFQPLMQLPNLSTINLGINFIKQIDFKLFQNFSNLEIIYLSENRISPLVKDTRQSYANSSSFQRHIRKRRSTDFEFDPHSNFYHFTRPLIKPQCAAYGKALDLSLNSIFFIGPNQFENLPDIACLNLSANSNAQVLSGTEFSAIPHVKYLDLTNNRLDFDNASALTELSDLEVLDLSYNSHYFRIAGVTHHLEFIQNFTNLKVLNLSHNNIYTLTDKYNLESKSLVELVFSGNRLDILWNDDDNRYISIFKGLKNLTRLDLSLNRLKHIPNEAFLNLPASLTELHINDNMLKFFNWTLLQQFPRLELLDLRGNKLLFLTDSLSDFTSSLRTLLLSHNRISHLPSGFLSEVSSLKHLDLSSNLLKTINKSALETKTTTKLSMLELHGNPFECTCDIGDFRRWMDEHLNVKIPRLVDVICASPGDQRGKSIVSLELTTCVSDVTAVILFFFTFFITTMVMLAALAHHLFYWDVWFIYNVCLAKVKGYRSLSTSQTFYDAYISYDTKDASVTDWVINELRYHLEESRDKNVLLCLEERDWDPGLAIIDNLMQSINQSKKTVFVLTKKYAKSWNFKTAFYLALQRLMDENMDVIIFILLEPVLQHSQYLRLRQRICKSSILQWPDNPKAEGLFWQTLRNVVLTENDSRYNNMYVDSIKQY
The experiment is described as follows: TLR8 inhibition reporter assay (HEK-Blue cells, SEAP reporter, R848 stimulation). The note with it: HEK-Blue cells overexpressing human TLR8, SEAP reporter, R848 15.9 μM. In short, it runs like this: as §1

In another experiment the target is T3, human TLR9 (Homo sapiens, UniProt Q9NR96).
T3 construct: host or cells: HEK-Blue cells (HEK293-derived reporter line)
T3 sequence (Q9NR96 26-1032): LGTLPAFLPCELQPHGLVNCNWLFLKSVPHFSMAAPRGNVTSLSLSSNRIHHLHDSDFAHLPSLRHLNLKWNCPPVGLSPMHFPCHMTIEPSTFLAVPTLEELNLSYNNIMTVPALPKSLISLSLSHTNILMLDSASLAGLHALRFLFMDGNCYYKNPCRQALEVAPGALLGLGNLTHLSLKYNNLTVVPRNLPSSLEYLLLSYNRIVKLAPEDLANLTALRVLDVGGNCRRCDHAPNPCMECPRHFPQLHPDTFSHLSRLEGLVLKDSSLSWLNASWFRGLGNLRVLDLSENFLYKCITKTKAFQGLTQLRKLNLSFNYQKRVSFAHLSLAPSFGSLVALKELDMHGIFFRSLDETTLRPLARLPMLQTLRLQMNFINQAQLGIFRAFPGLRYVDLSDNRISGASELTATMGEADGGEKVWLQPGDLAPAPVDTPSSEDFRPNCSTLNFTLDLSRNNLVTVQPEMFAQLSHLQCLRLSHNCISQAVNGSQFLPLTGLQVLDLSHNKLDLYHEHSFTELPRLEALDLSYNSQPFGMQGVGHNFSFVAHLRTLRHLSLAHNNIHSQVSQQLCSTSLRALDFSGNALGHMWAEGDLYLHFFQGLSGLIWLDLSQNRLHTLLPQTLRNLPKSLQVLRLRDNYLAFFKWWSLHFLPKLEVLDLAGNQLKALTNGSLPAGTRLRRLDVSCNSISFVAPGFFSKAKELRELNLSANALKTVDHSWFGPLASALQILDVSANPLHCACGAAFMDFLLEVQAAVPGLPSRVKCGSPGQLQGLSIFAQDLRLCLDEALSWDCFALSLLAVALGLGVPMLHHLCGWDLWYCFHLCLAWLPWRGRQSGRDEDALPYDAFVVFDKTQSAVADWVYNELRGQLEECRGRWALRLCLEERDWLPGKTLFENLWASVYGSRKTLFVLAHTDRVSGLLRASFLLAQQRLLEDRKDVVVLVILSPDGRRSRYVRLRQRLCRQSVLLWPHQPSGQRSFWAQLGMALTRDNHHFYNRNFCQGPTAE
In words: TLR9 inhibition reporter assay (HEK-Blue cells, SEAP reporter, ODN2006 stimulation). The note with it: HEK-Blue cells overexpressing human TLR9, SEAP reporter, ODN2006 5 nM. A digest of the protocol:
as §1

Each structure is given as a SMILES string. Bounds are passed on as bounds.

With `CC(C)c1c(-c2cn3ccnc3cc2Cl)[nH]c2ccc(C3CCN(CC(=O)N(C)C)CC3)cc12` [Example 428, 2-(4-(2-(7-chloroimidazo[1,2-a]pyridin-6-yl)-3-isopropyl-1H-indol-5-yl)piperidin-1-yl)-N,N-dimethylacetamide], the results for the IC50 against human TLR7, against human TLR8 and at human TLR9 were less than 100 nM, less than 100 nM and 1000 to 50000 nM, respectively.
Regarding `Cc1cn2c(C)cc(-c3[nH]c4ccc(C5CCNCC5)cc4c3C(C)C)cc2n1` [Example 160, 7-(3-isopropyl-5-(piperidin-4-yl)-1H-indol-2-yl)-2,5-dimethylimidazo[1,2-a]pyridine], the IC50 on human TLR7, against human TLR8 and against human TLR9 was 100 to 1000 nM each time.
For the molecule `CCc1c(-c2ccc3nccn3c2)[nH]c2cc(F)c(C3CCNCC3)c(F)c12` [Example 257, 6-(3-ethyl-4,6-difluoro-5-(piperidin-4-yl)-1H-indol-2-yl)imidazo[1,2-a]pyridine], the IC50 at human TLR7, at human TLR8 and on human TLR9 was less than 100 nM throughout.
For the molecule `CC(C)c1c(-c2cn(C)c3ncccc23)[nH]c2ccc(C3CCN(CCS(N)(=O)=O)CC3)cc12` [Example 783, 2-(4-(3-isopropyl-2-(1-methyl-1H-pyrrolo[2,3-b]pyridin-3-yl)-1H-indol-5-yl)piperidin-1-yl)ethane-1-sulfonamide], the values for the IC50 at human TLR7, against human TLR8 and against human TLR9 were less than 100 nM, less than 100 nM and 1000 to 50000 nM, respectively.
Turning to `CC(C)c1c(-c2ccnc3[nH]ncc23)[nH]c2ccc(C3CCN(C(=O)CN(C)C)CC3)cc12` [Example 449, 2-(dimethylamino)-1-(4-(3-isopropyl-2-(1H-pyrazolo[3,4-b]pyridin-4-yl)-1H-indol-5-yl)piperidin-1-yl)ethanone], the IC50 against human TLR7 was less than 100 nM; against human TLR8, less than 100 nM; at human TLR9 it was 1000 to 50000 nM.
As to `CC(C)c1c(-c2ccc3[nH]ncc3c2)[nH]c2ccc(C3CCNCC3)cc12` [Example 169, 5-(3-isopropyl-5-(piperidin-4-yl)-1H-indol-2-yl)-1H-indazole], the IC50 against human TLR7 lay within 100 to 1000 nM; against human TLR8 it was 1000 to 50000 nM; on human TLR9, 1000 to 50000 nM.
On to `CC(C)c1c(-c2ccc(C#N)c3ncccc23)[nH]c2ccc(C3CCN(C4COC4)CC3)cc12` [Example 714, 5-(3-isopropyl-5-(1-(oxetan-3-yl)piperidin-4-yl)-1H-indol-2-yl)quinoline-8-carbonitrile], for which the IC50 against human TLR7 is less than 100 nM; against human TLR8, less than 100 nM; against human TLR9, more than 50000 nM.
In the case of `CC(C)c1c(-c2cc(C(F)(F)F)c3nccn3c2)[nH]c2ccc(C3CCN(Cc4cnn(C)c4)CC3)cc12` [Example 933, 6-(3-isopropyl-5-(1-((1-methyl-1H-pyrazol-4-yl)methyl)piperidin-4-yl)-1H-indol-2-yl)-8-(trifluoromethyl)imidazo[1,2-a]pyridine], the values for the IC50 at human TLR7, against human TLR8 and against human TLR9 were less than 100 nM, less than 100 nM and 100 to 1000 nM, respectively.
In the case of `CNC(=O)CN1CCC(c2ccc3[nH]c(-c4cc(OC)c5nccn5c4)c(C(C)C)c3c2)CC1` [Example 434, 2-(4-(3-isopropyl-2-(8-methoxyimidazo[1,2-a]pyridin-6-yl)-1H-indol-5-yl)piperidin-1-yl)-N-methylacetamide], the IC50 is less than 100 nM against human TLR7, less than 100 nM at human TLR8 and 100 to 1000 nM against human TLR9.
For `Cc1cn2c(C)c(-c3[nH]c4ccc(C5CCNCC5)cc4c3C(C)C)ccc2n1` [Example 123, 6-(3-isopropyl-5-(piperidin-4-yl)-1H-indol-2-yl)-2,5-dimethylimidazo[1,2-a]pyridine], the IC50 against human TLR7 was less than 100 nM; against human TLR8, 100 to 1000 nM; at human TLR9, 100 to 1000 nM.
For `Cc1cc(-c2[nH]c3ccc(C4CCN(C5CCOCC5)CC4)cc3c2C(C)C)cc2cccnc12` [Example 703, 6-(3-isopropyl-5-(1-(tetrahydro-2H-pyran-4-yl)piperidin-4-yl)-1H-indol-2-yl)-8-methylquinoline], the values for the IC50 at human TLR7, against human TLR8 and at human TLR9 were less than 100 nM, less than 100 nM and 1000 to 50000 nM, respectively.
`CC(C)c1c(-c2ccc3nccn3c2)[nH]c2ccc(C3CCNCC3)c(F)c12` [Example 258, 6-(4-fluoro-3-isopropyl-5-(piperidin-4-yl)-1H-indol-2-yl)imidazo[1,2-a]pyridine]: the IC50 at human TLR7 is less than 100 nM; against human TLR8, less than 100 nM; at human TLR9, 100 to 1000 nM.
`CC(C)c1c(-c2ccc3cnnn3c2)[nH]c2ccc(C3CCN(C4COC4)CC3)cc12` [Example 734, 6-(3-isopropyl-5-(1-(oxetan-3-yl)piperidin-4-yl)-1H-indol-2-yl)-[1,2,3]triazolo[1,5-a]pyridine]: the IC50 against human TLR7 lay in the range of 100 to 1000 nM; against human TLR8, 100 to 1000 nM; against human TLR9, 1000 to 50000 nM.

Broadly, the IC50 is the point on the concentration scale where inhibition reaches its midpoint. Read a high IC50 as weaker potency.
